Measurements reported in patent US11674963B2, “GPCRs in cancer-associated fibroblasts” (The Regents of the University of California, priority 2017, dated 2023).
Where a SMILES comes first, the peptide text is derived from it. The star is where a group is joined. Cbz = O=C(OCc1ccccc1)*

Assays:
Assay type in all cases: cell-based, human
PSCs [1] = assay: Real-time qPCR of GPR68 expression in PSCs incubated with TNFα and NF-κB inhibitors; conditions: 6 h, TNFα 50 ng/mL; MG-132 20 μM, IKK2 inhibitor VI 5 μM, JSH-23 20 μM, CAY10512 0.3 μM
From the text: (§1) FIGS. 3A-3D show co-culture of PDAC cells and PSCs increases expression by PSCs of GPR68 and fibrotic genes, effects mediated by TNFα and TGFβ, respectively. […] Relative expression was compared by 2^(ΔCt control-ΔCtco-culture). Data are mean±SEM, n=3, unpaired t test, *p<0.05, **p<0.01, ***p<0.001, ****p<0.0001. […] Relative expression was compared by 2^(ΔCt control-ΔCtTGFβ1 or ΔCtTNFα). Data are mean±SEM, n=3, unpaired t test, *p<0.05, **p<0.01, ****p<0.0001. […] Relative expression was compared to control by 2(ΔCt control-ΔCtco-culture). Data are mean±SEM, n=3, unpaired t test, *p<0.05. […] Relative expression was normalized to control by 2(ΔCt^control-ΔCtTGFβ1 or ^ΔCtTNFα) n=3, data are mean±SEM, unpaired t test, *p<0.05, **p<0.01, ****p<0.0001.
(§2) RNA isolated using an RNeasy kit with DNase treatment (Qiagen) and converted to cDNA using an iScript cDNA Synthesis Kit (Bio-Rad, Irvine, Calif., USA). cDNA was mixed with gene-specific primers and SYBR green reagent (Quanta Biosciences, Gaithersburg, Md., USA) for PCR amplification using a DNA Engine Opticon 2 system (MJ Research, Waltham, Mass., USA). Primers were designed using Primer Premier 6 software (PREMIER Biosoft, Palo Alto, Calif., USA). Gene expression was quantified as ΔCt using 18S rRNA as the reference gene. Expression of different cells was compared as fold-change=2(AACt). RNA isolated using an RNeasy kit with DNase treatment (Qiagen) and converted to cDNA using an iScript cDNA Synthesis Kit (Bio-Rad, Irvine, Calif., USA). cDNA was mixed with gene-specific primers and SYBR green reagent (Quanta Biosciences, Gaithersburg, Md., USA) for PCR amplification using a DNA Engine Opticon 2 system (MJ Research, Waltham, Mass., USA). Primers were designed using Primer Premier 6 software (PREMIER Biosoft, Palo Alto, Calif., USA). Gene expression was quantified as ΔCt using 18S rRNA as the reference gene. Expression of different cells was compared as fold-change=2(AACt). […] Gene expression was quantified as ΔCt using 18S rRNA as the reference gene. […]

PSCs [2] = assay: Real-time qPCR of gene expression in PSCs incubated with TGFβ1 or TNFα; conditions: PSCs incubated 48 h with 50 ng/mL
From the text: as §1
RNA isolated using an RNeasy kit with DNase treatment (Qiagen) and converted to cDNA using an iScript cDNA Synthesis Kit (Bio-Rad, Irvine, Calif., USA). cDNA was mixed with gene-specific primers and SYBR green reagent (Quanta Biosciences, Gaithersburg, Md., USA) for PCR amplification using a DNA Engine Opticon 2 system (MJ Research, Waltham, Mass., USA). Primers were designed using Primer Premier 6 software (PREMIER Biosoft, Palo Alto, Calif., USA). Gene expression was quantified as ΔCt using 18S rRNA as the reference gene. Expression of different cells was compared as fold-change=2(AACt). RNA isolated using an RNeasy kit with DNase treatment (Qiagen) and converted to cDNA using an iScript cDNA Synthesis Kit (Bio-Rad, Irvine, Calif., USA). cDNA was mixed with gene-specific primers and SYBR green reagent (Quanta Biosciences, Gaithersburg, Md., USA) for PCR amplification using a DNA Engine Opticon 2 system (MJ Research, Waltham, Mass., USA). Primers were designed using Primer Premier 6 software (PREMIER Biosoft, Palo Alto, Calif., USA). Gene expression was quantified as ΔCt using 18S rRNA as the reference gene. Expression of different cells was compared as fold-change=2(AACt). The primer sequences are: 18S-F: 5′-[…]-3′ (SEQ ID NO: 1); 18S-R: 5′-[…]-3′ (SEQ ID NO: 2); GPR68-F: 5′-CCTTCCGCTTCCACCAGTT-3′ (SEQ ID NO: 3); GPR68-R: 5′-TCGTCCTCGATGACCTCCT-3′ (SEQ ID NO: 4); ACTA2-F: 5′-[…]-3′ (SEQ ID NO: 5); ACTA2-R: 5′-[…]-3′ (SEQ ID NO: 6); COL1A1-F: 5′-[…]-3′ (SEQ ID NO: 7); COL1A1-R: 5′-[…]-3′ (SEQ ID NO: 8); IL6-F: 5′-[…]-3′ (SEQ ID NO: 9); IL6-R: 5′-[…]-3′ (SEQ ID NO: 10); COL3A1-F: 5′-GCTGGCTACTTCTCGCTCT-3′ (SEQ ID NO: 11); COL3A1-R: 5′-[…]-3′ (SEQ ID NO: 12); POSTN-F: 5′-[…]-3′ (SEQ ID NO: 13); POSTN-R: 5′-[…]-3′ (SEQ ID NO: 14); CTGF-F: 5′-[…]-3′ (SEQ ID NO: 15); CTGF-R: 5′-GCTACAGGCAGGTCAGTGA-3′ (SEQ ID NO: 16); PDGFRB-F: 5′-[…]-3′ (SEQ ID NO: 17); PDGFRB-R: 5′-[…]-3′ (SEQ ID NO: 18). Gene expression was quantified as ΔCt using 18S rRNA as the reference gene. We compared expression of different cells as fold-change=2(AACt).

CAFs = assay: Real-time qPCR of GPR68 and IL-6 expression in CAFs at pH 6.8 with PKA or CREB inhibitors; conditions: CAFs cultured 6 h in pH 6.8 media, normalized to pH 7.4
Method: FIG. 6A show CAFs transfected with control or GPR68 siRNA were cultured in pH media for 30 min, treated with 1 mM IBMX for 10 min and cellular cAMP was measured by the HitHunter cAMP assay. Data are mean±SEM, n=3, two-way ANOVA, *p<0.05, ****p<0.0001. […] Results were normalized to those at pH 7.4. n=3, data are mean±SEM, unpaired t test, **p<0.01, ***p<0.001, ns=non-significant. […] Activation of CREB is shown as p-CREB/CREB. Data are mean±SEM, n=3, unpaired t test, *p<0.05. […] Results are normalized to those at pH 7.4. Data are mean±SEM, n=3, unpaired t test, **p<0.01, ***p<0.001, ns=non-significant.
as §2
The pH media are DMEM containing 5 g/L glucose, 20 mM HEPES, 20 mM NaHCO3, 2% FBS, 100 I.U./ml penicillin and 100 μg/ml streptomycin, pH adjusted by HCl or NaOH at room temperature. […] Cell viability were assessed by a CEllTiter-Glo Luminescent assay (Promega) and detected using a DXT 800 multimode plate reader (Beckman Coulter, Carlsbad, Calif., USA).

## Cc1ccc(NCCCc2ccccc2)c(N)c1 [JSH-23]
PSCs [1]
  TNFα-promoted increase in GPR68 expression in PSCs: reduced

## TGFβ1: Transforming growth factor beta 1, a driver of PSC activation
PSCs [2]
  ACTA2 expression: increased expression
  COL1A1 expression: increased expression
PSCs [2]; result in words
  GPR68 expression: did not change

## TNFα
PSCs [2]
  ACTA2 expression: not higher
  COL1A1 expression: not higher
PSCs [2]; higher vs control
  expression of GPR68: 18 fold
  expression of IL-6: 31 fold

## NC(=O)Nc1sc(-c2ccccc2)cc1C(N)=O [IKK2 inhibitor VI]
PSCs [1]
  TNFα-promoted increase in GPR68 expression in PSCs: reduced

## O=C(Nc1ccc(Cl)cc1)c1cc2ccccc2cc1O [naphthol AS-E]
CAFs
  GPR68 expression in CAFs: without altering
  pH 6.8-promoted increase in IL-6 expression by CAFs: blunted

## O=S(=O)(NCCNC/C=C/c1ccc(Br)cc1)c1cccc2cnccc12 [H89]
CAFs
  GPR68 expression in CAFs: did not alter
  pH 6.8-promoted increase in IL-6 expression by CAFs: blocked

## CC(C)C[C@@H](C=O)NC(=O)[C@H](CC(C)C)NC(=O)[C@H](CC(C)C)NC(=O)OCc1ccccc1 [MG132] (Cbz-Leu-Leu-Leu-aldehyde)
PSCs [1]
  TNFα-promoted increase in GPR68 expression in PSCs: reduced
